Laboratory results from ChEMBL document CHEMBL1201862, “PubChem BioAssay data set” (2004).
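Step 1: Grow cells in 96-well plates. Step 2: Expose to compound for 48 hours at 5 concentrations. Step 3: Interpolate endpoints linearly; if unreached, use highest concentration. GI50 marks 50% less growth.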 The source made the active and inactive calls. Rule as the data show it: active = GI50 up to about 1.1 µM and inactive = higher.

What was measured:
Test in all cases: growth of human tumour cells (NCI), 48 h
HCT-15 = system: HCT-15
U-251 = system: U-251
K562 = system: K562
HCC 2998 = system: HCC 2998
NCI-H226 = system: NCI-H226
MDA-MB-231 = system: MDA-MB-231
TK-10 = system: TK-10
OVCAR-4 = system: OVCAR-4
SR = system: SR
A498 = system: A498
EKVX = system: EKVX
SF-539 = system: SF-539
COLO 205 = system: COLO 205
HCT-116 = system: HCT-116
OVCAR-3 = system: OVCAR-3
MDA-N = system: MDA-N
MDA-MB-435 = system: MDA-MB-435
KM12 = system: KM12
UO-31 = system: UO-31
NCI-H460 = system: NCI-H460
OVCAR-8 = system: OVCAR-8
SNB-75 = system: SNB-75
LOX IMVI = system: LOX IMVI
ACHN = system: ACHN
SK-MEL-28 = system: SK-MEL-28
NCI-H23 = system: NCI-H23
DU-145 = system: DU-145
PC-3 = system: PC-3
HOP-62 = system: HOP-62
SW-620 = system: SW-620
SN12C = system: SN12C
SK-MEL-2 = system: SK-MEL-2
MOLT-4 = system: MOLT-4
RPMI-8226 = system: RPMI-8226
786-0 = system: 786-0
BT-549 = system: BT-549
CCRF-CEM = system: CCRF-CEM
SNB-19 = system: SNB-19
HOP-92 = system: HOP-92
HT-29 = system: HT-29
MCF7 = system: MCF7
CAKI-1 = system: CAKI-1
OVCAR-5 = system: OVCAR-5
M14 = system: M14
SK-OV-3 = system: SK-OV-3
T47D = system: T47D
UACC-62 = system: UACC-62
NCI/ADR-RES = system: NCI/ADR-RES
IGROV-1 = system: IGROV-1
SK-MEL-5 = system: SK-MEL-5
SF-295 = system: SF-295
UACC-257 = system: UACC-257
SF-268 = system: SF-268
RXF 393 = system: RXF 393
A549 = system: A549
HL-60 = system: HL-60
Hs-578T = system: Hs-578T
Malme-3M = system: Malme-3M
NCI-H522 = system: NCI-H522

Measured: GI50

O=C1CC(O)c2c(Cl)sc(Cl)c21 (stereo unspecified)
3.39 µM: HCT-15
inactive: U-251 13.9 µM | K562 3.37 µM | HCC 2998 27.2 µM | NCI-H226 15.1 µM | MDA-MB-231 27.7 µM | TK-10 15.9 µM | OVCAR-4 18.9 µM | SR 2.71 µM | A498 22.1 µM | EKVX 18.7 µM | SF-539 9.04 µM | COLO 205 5.12 µM | HCT-116 3.83 µM | OVCAR-3 5.4 µM | MDA-N 9.33 µM | MDA-MB-435 8.02 µM | KM12 3.9 µM | UO-31 6.49 µM | NCI-H460 22.8 µM | OVCAR-8 4.07 µM | SNB-75 14.4 µM | LOX IMVI 2.08 µM | ACHN 12.2 µM | SK-MEL-28 6.46 µM | NCI-H23 15.3 µM | DU-145 12.9 µM | PC-3 13.3 µM | HOP-62 14.1 µM | SW-620 3.13 µM | SN12C 11.3 µM | SK-MEL-2 13.5 µM | MOLT-4 2.81 µM | RPMI-8226 7.19 µM | 786-0 4.14 µM | BT-549 16 µM | CCRF-CEM 1.7 µM | SNB-19 21.7 µM | HOP-92 3.11 µM | HT-29 2.88 µM | MCF7 5.45 µM | CAKI-1 3.3 µM | OVCAR-5 17 µM | M14 14.2 µM | SK-OV-3 22.5 µM | T47D 5.89 µM | UACC-62 14.7 µM | NCI/ADR-RES 22.9 µM | IGROV-1 8.13 µM | SK-MEL-5 17.1 µM | SF-295 23.2 µM | UACC-257 9.98 µM | SF-268 3.66 µM | RXF 393 3.68 µM | A549 16.4 µM

CCC(=O)NC(OCC1(CC)COC1)(C(F)(F)F)C(F)(F)F
> 100 µM: HCT-15
inactive: U-251 > 100 µM | K562 > 100 µM | HL-60 > 100 µM | HCC 2998 > 100 µM | NCI-H226 > 100 µM | MDA-MB-231 > 100 µM | TK-10 > 100 µM | SR > 100 µM | A498 > 100 µM | EKVX > 100 µM | SF-539 > 100 µM | HCT-116 > 100 µM | OVCAR-3 > 100 µM | MDA-N > 100 µM | MDA-MB-435 > 100 µM | KM12 > 100 µM | UO-31 > 100 µM | NCI-H460 > 100 µM | SNB-75 > 100 µM | LOX IMVI > 100 µM | ACHN > 100 µM | SK-MEL-28 > 100 µM | NCI-H23 > 100 µM | DU-145 > 100 µM | Hs-578T > 100 µM | HOP-62 > 100 µM | SN12C > 100 µM | Malme-3M > 100 µM | SK-MEL-2 > 100 µM | MOLT-4 > 100 µM | RPMI-8226 > 100 µM | BT-549 > 100 µM | CCRF-CEM > 100 µM | SNB-19 > 100 µM | HT-29 > 100 µM | MCF7 > 100 µM | OVCAR-5 > 100 µM | M14 > 100 µM | SK-OV-3 > 100 µM | T47D > 100 µM | NCI-H522 > 100 µM | UACC-62 > 100 µM | UACC-257 > 100 µM | SF-268 > 100 µM | RXF 393 92.3 µM
